Reference: article PMC6662706, “Short amylin receptor antagonist peptides improve memory deficits in Alzheimer’s disease mouse model” (Scientific Reports, 2019)
No end group written: not given here.

How the values were obtained:
[1] = In vitro proteolytic stability in human serum; assay type: in vitro ADME; details: 37°C, intact peptide at different time points estimated by RP-HPLC
Procedure: Subsequently, we investigated the proteolytic stability of R5, and R14 compared to AC253. […] By assessing the main degradation fragments for both peptides using MALDI-TOF, we found both peptides to be cleaved at the basic arginine amino acids.
Supplementary Figure S2: The comparison of bio-distribution for the fragments and their parent peptide. (A) Ex vivo fluorescence showing bio-distribution images for Cy5.5-R5, R14, AC253 in different organs at after a 2 h of a single ip injection of the peptides (0.1 mmol in 200µl saline). (B) Quantification of peptides fluorescence in each organ (n=3). (C) In vitro stability of R5, R14, and AC253 peptides in human serum compared with AC253 at 37°C. The amount of intact peptide in human serum at different time points was estimated using RP-HPLC.

[2] = system: hippocampal LTP (CA1); assay: Hippocampal long-term potentiation (LTP) in slices from wild type mice; design: species or system mouse
Procedure: (§1) We examined whether the peptide fragments were capable of influencing Aβ- or hAmylin-induced reduction of hippocampal LTP in mice. Exposure of hippocampal slices from wild-type mice to hAmylin (50 nM) or Aβ (50 nM) depressed LTP induced by a weak tetanization protocol at the CA1 region as previously reported[20],[30]. To determine whether peptides affected hAmylin or Aβ- induced depression of LTP, we applied 250 nM R5 or R14 continuously for 5 min prior to exposure of the hippocampal slices to 50 nM hAmylin or Aβ and the subsequent LTP induction. […] We therefore sought to determine whether peptide fragments were also capable of improving LTP levels in the same TgCRND8 AD mouse model. […] Importantly, doses of the short peptide fragments used in these experiments were equimolar to those used for AC253 and pramlintide in our previous studies[20],[30].
For electrophysiology experiment, hippocampal slices (400-μm thick) were prepared using a vibratome from wild type and TgCRND8 mice (8 month of age, male or female). For long-term potentiation (LTP) measurement, the stimulus strength was set to elicit 40–50% of the maximum fEPSP (field excitatory postsynaptic potential) amplitude and test pulses were delivered once every 30s. LTP was induced by 3-theta-burst stimulation protocol (each burst consisted of four pulses at 100 Hz with a 200-ms interburst interval). All drugs and chemicals were applied directly to the slice via bath perfusion.
Brains were quickly removed from mice following decapitation, placed in a cold artificial cerebral spinal fluid (aCSF) on a vibratome chamber, and transverse sections cut through the hippocampus. The aCSF contained (in millimolar 124 NaCl, 3 KCl, 2.4 CaCl2, 2 MgCl2, 1.25 NaH2PO4, 26 NaHCO3, and 10 D-glucose and was equilibrated with 95 % O2 and 5 % CO2. Hippocampal slices (400-μm thick) were maintained in aCSF-filled holding chamber at room temperature for at least 1 h and individually transferred to the submerged glass bottom recording chamber, which was constantly perfused with aCSF (2 ml/min) at 30 °C. Field excitatory postsynaptic potential (fEPSP) was recorded with a metallic (Pt/Ir) electrode (FHC, Bowdoin, ME) from the stratum radiatum layer of Cornu ammonis 1 region of the hippocampus (CA1) area, and the Schaffer collateral afferents were stimulated with 100-μs test pulses via a bipolar cluster electrode (FHC). For long-term potentiation (LTP) experiments, the stimulus strength was set to elicit 40–50 % of the maximum fEPSP amplitude and test pulses were delivered to Schaffer collaterals once every 30 s. […] Before 3-TBS or drug application, the responses were monitored for at least 10 min to ensure a stable baseline of fEPSP. […]

[3] = system: hippocampal LTP (CA1); assay: Hippocampal LTP in slices from 8 month old TgCRND8 mice; design: species or system mouse; details: n = 6 recordings
Procedure: as §1
For electrophysiology experiment, hippocampal slices (400-μm thick) were prepared using a vibratome from wild type and TgCRND8 mice (8 month of age, male or female). […]
Brains were quickly removed from mice following decapitation, placed in a cold artificial cerebral spinal fluid (aCSF) on a vibratome chamber, and transverse sections cut through the hippocampus. […] Before 3-TBS or drug application, the responses were monitored for at least 10 min to ensure a stable baseline of fEPSP. […]

[4] = system: HEK-WT cells; assay: Flow cytometry cell binding and uptake of Cy5.5 labeled peptides, HEK-WT cells; assay type: cell-based, human; details: Cy5.5 labeled peptides 5 µM, 1 h, 37 °C
Procedure: Next, we labeled R5, R14 peptides with Cy5.5 to examine their in vitro binding efficacy and specificity compared with AC253 in HEK-AMY3 cells using flow cytometry and fluorescence microscopy (Fig. 1A,C).
For flow cytometry studies, HEK-AMY3 cells were used to determine cell binding and uptake and binding of Cy5.5 labeled AC253, and R5, R14, R11 fragments. Cell were plated at a density of 1.5 × 10^5 cells/well and cultured overnight in 12-well plates at 37 °C. Peptides (5 µM) were added and incubated for 1 h at 37 °C in serum free media. The culture media was then discarded, and cell monolayers were washed with PBS containing 2 mM EDTA and 0.5% BSA adjusted to pH 7.4 at 37°C, then cells were washed again with cold buffer and incubated with 0.25% trypsin to remove cell surface–associated fluorophores. Cells were then dispersed in FACS solution (10% FBS in PBS), and analyzed using a FACSCanto II flow cytometer (BD Biosciences, USA) selecting a detection window between 720 and 840 nm, and fluorescence histograms and dot plots were generated using FLOWJO software (Tree Star, Inc, USA). At least 10,000 gated events per sample were analyzed to develop the histogram. HEK-WT cells was used as negative control.

Substance	half-life [1] [h]	effect of peptide alone on hippocampal LTP ([2]; wild type mouse slices, 250 nM)	effect on Aβ-induced depression of hippocampal LTP ([2]; wild-type mouse slices, peptide 250 nM for 5 min before Aβ1–42 50 nM, n = 6 recordings)	effect on hAmylin-induced depression of hippocampal LTP ([2]; wild-type mouse slices, peptide 250 nM for 5 min before hAmylin 50 nM, n = 6 recordings)	effect on chronically depressed LTP in TgCRND8 slices [3]	binding and uptake in HEK-WT cells compared to HEK-AMY3 cells [4]
SQELHRLQTYPR-NH2 [R5]	1	did not impair LTP	reversed	reversed	significant increase in LTP	
LGRLSQELHRLQTYPRTNTGSNTY-NH2 (C-terminus assumed) [AC253, reference compound]						reduced binding and uptake
